{
  "source": "patent US9650364B2",
  "about": "“Quinazolines as kinase inhibitors” (GlaxoSmithKline Intellectual Property Development Limited, priority 2013, dated 2017)",
  "key": {"[1]": {"molecular_target": "T1, RIPK2 (full length FLAG His tagged) (Homo sapiens, UniProt O43353)", "T1 construct": "Full length FLAG His tagged RIPK2 was purified from a Baculovirus expression system; FLAG (N); 6His (N); made in house; host or cells: Spodoptera frugiperda (Sf9) insect cells, baculovirus", "T1 sequence (O43353 whole entry)": "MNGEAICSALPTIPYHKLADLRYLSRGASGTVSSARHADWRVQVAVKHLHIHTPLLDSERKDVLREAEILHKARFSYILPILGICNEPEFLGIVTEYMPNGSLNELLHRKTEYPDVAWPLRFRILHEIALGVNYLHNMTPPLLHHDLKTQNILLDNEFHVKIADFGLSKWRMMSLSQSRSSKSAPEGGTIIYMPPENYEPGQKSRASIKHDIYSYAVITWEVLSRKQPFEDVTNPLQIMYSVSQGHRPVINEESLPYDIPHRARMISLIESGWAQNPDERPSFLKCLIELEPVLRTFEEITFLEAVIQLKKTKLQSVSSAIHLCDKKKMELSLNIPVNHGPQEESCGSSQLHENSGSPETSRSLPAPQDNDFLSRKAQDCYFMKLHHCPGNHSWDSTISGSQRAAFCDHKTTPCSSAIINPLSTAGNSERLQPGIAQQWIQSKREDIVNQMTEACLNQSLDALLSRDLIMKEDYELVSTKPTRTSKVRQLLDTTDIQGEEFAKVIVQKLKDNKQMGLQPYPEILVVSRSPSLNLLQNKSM", "experiment": "Fluorescent polarization based binding assay at the ATP binding pocket of RIPK2", "conditions": "RIPK2 FP binding", "excerpt": "A fluorescent polarization based binding assay was developed to quantitate interaction of novel test compounds at the ATP binding pocket of RIPK2, by competition with a fluorescently labeled ATP competitive ligand. Full length FLAG His tagged RIPK2 was purified from a Baculovirus expression system and was used at a final assay concentration of twice the KDapparent. A fluorescent labeled ligand (5-({[2-({[3-({4-[(5-hydroxy-2-methylphenyl)amino]-2-pyrimidinyl}amino)phenyl]carbonyl}amino)ethyl]amino}carbonyl)-2-(6-hydroxy-3-oxo-3H-xanthen-9-yl)benzoic acid, prepared as described in WO2011/120025) was used at a final assay concentration of 5 nM. Both the enzyme and ligand were prepared in solutions in 50 mM HEPES pH7.5, 150 mM NaCl, 10 mM MgCl2, 1 mM DTT, and 1 mM CHAPS. Test compounds were prepared in 100% DMSO and 100 nL was dispensed to individual wells of a multiwell plate. Next, 5 ul RIPK2 was added to the test compounds at twice the final assay concentration, and incubated at rt for 10 min. Following the incubation, 5 ul of the fluorescent labeled ligand solution, was added to each reaction, at twice the final assay concentration, and incubated at rt for at least 10 min. Finally, samples were read on an instrument capable of measuring fluorescent polarization. Test compound inhibition was expressed as percent (%) inhibition of internal assay controls.\nFor concentration/dose response experiments, normalized data were fit and pIC50s determined using conventional techniques. The pIC50s are averaged to determine a mean value, for a minimum of 2 experiments.\nFull-length human RIPK2 (receptor-interacting serine-threonine kinase 2) cDNA was purchased from Invitrogen (Carlsbad, Calif., USA, Clone ID:IOH6368, RIPK2-pENTR 221). Gateway® LR cloning was used to site-specifically recombine RIPK2 downstream to an N-terminal FLAG-6His contained within the destination vector pDEST8-FLAG-His6 according to the protocol described by Invitrogen. Transfection into Spodoptera frugiperda (Sf9) insect cells was performed using Cellfectin® (Invitrogen), according to the manufacturer's protocol."}, "[2]": {"system": "RIP2 kinase-dependent cytokine production (TNFα) in human whole blood", "experiment": "MDP-stimulated human whole blood cytokine (TNFα) production assay", "type": "cell-based", "conditions": "inhibition of TNFα, MDP 100 ng/mL, 6 hr, mean of minimum 2 experiments", "method": "A muramyl dipeptide (MDP)-stimulated human whole blood cytokine production assay was developed to evaluate the cellular potency and efficacy of novel test compounds. Heparinized blood (160 μL) obtained from healthy human volunteers was dispensed into individual wells of a multiwell plate. Test compounds were dissolved in 100% DMSO and diluted in calcium- and magnesium-free D-PBS to prepare 10× working stock solutions. Twenty microliters of diluted test compound was added per well and the plates were placed on a plate shaker (500 rpm) and incubated for 30 min in a humidified incubator (37° C., 5% CO2). A 10× working stock of MDP was prepared in sterile, endotoxin-free water containing 1% DMSO. Twenty microliters of the MDP stock solution was added per well (final conc.=100 ng/mL) to stimulate RIP2 kinase-dependent cytokine production. The final concentration of DMSO was 0.1% (v/v) in all wells. Plates were incubated for an additional 6 hr (as noted above). Then an additional 100 μL of D-PBS (Dulbecco's phosphate-buffered saline) was added/well, the plates were centrifuged, and supernatants collected. TNFα levels in the supernatants were quantified using a commercial immunoassay (MesoScale Discovery). Test compound inhibition was expressed as percent (%) inhibition of internal assay controls. For concentration/dose response experiments, normalized data were fit and pIC50s determined using conventional techniques. The pIC50s are averaged to determine a mean value, for a minimum of 2 experiments."}, "[3]": {"system": "isolated rabbit left ventricular wedge preparation", "experiment": "Rabbit cardiac wedge preparation (ECG and isometric contractile force)", "conditions": "for TdP Score: BCL=2000 ms, score range −2 to 14; for TdP Score / ICF (% change), contractility / QRS / QT / Tp-e (msec), transmural dispersion / Δ QT %: mean, n = 2; for Proarrhythmia: preparations affected of n = 2", "method": "Female rabbits weighing 2.2-3 kg were anticoagulated with heparin and anesthetized with pentobarbital (50 mg/kg, i.v.). The chest was opened via a left thoracotomy, and the heart was excised and placed in a cardioplegic solution consisting of cold (4° C.) normal Tyrode's solution. A transmural wedge with dimensions of approximately 1.5 cm wide and 2-3 cm long was dissected from the left ventricle.\nThe wedge tissue was cannulated via the left anterior descending artery or the circumflex artery and perfused with cardioplegic solution. The preparation was then placed in a small tissue bath and arterially perfused with Tyrode's solution (T: 35.7±0.1° C., perfusion pressure: 30-45 mmHg). The ventricular wedge was allowed to equilibrate in the tissue bath until electrically stable, usually one hour. The preparations were stimulated at basic cycle lengths (BCL) of 1000 and 2000 msec using bipolar silver electrodes insulated except at the tips and applied to the endocardial surface.\nA transmural electrocardiogram (ECG) was recorded in all experiments using extracellular silver/silver chloride electrodes placed in the Tyrode's solution bathing the preparation 1.0 to 1.5 cm from the epicardial and endocardial surfaces, along the same vector as the transmembrane recordings (Epi: “+” pole). On the ECG, transmural dispersion of repolarization (TDR) was defined by the interval between the end and the peak of T wave (Tp-e). The QT interval was defined as the time from the onset of the QRS to the point at which the final downslope of the T wave crossed the isoelectric line. QRS, QT, and Tp-e durations are measured for 10 sweeps and averaged per treatment. Data from total population of animals is averaged per treatment, and compared to average control values.\nisometric contractile force generation (% ICF) is measured for 10 sweeps and averaged per treatment. Data from total population of animals is averaged per treatment, and compared to average control values.\nEach test compound was prepared in 100% DMSO at a stock concentration of 30 mM. Compound was diluted to the highest concentration tested into Tyrode's buffer (containing in mM: 129 NaCl, 4 KCl, 0.9 NaH2PO4, 20 NaHCO3, 1.8 CaCl2, 0.5 MgSO4, and 5.5 glucose, pH 7.4 when buffered with 95% O2 and 5% CO2) from which subsequent serial dilutions were prepared.\nEach test compound was tested at 4 concentrations, from 1-30 μM. After the wedge preparations were perfused with normal Tyrode's solution and stimulated at a BCL of 1000 msec for one hour, stimulation frequency was reduced to a BCL of 2000 msec for a 5 minute period of stabilization after which baseline ECG and isometric contractile force (ICF) were recorded. The preparations were then returned to a BCL of 1000 msec and perfused with Tyrode's solution containing a test compound. For each test compound concentration, wedge preparations were perfused for 20 minutes at a BCL of 1000 msec followed by 5 minutes at a BCL of 2000 msec during which ECG and ICF were recorded. The compound of Example 2 (6-(tert-butylsulfonyl)-N-(4,5-dimethyl-1H-pyrazol-3-yl)-7-ethoxyquinazolin-4-amine) was evaluated in the rabbit cardiac wedge preparation. The four major readouts from the wedge preparation include QT prolongation, torsadogenicity (TdP score derived from QT, Tp-e and early after depolarizations), impulse conduction (QRS-related) and contractility, which are presented in Table 2.\nA scoring system was used for the estimate of risk of a compound for the relative TdP risk using the isolated rabbit left ventricular wedge preparation: points for the QT interval, the Tp-e/QT ratio. The TdP score was generated by first converting the QT interval and Tp-e/QT ratio to % change from baseline. These values are individually assigned a TdP score based on the following system: <−5%=−1, −5% to 10%=0, 10% to 20%=1, 20% to 30%=2, >30%=3. Total scoring system range is −2 to 14 at BCL=2000 ms."}, "[4]": {"system": "337 member kinase panel", "experiment": "Kinome selectivity, in vitro profiling (Reaction Biology Corporation)", "type": "biochemical", "conditions": "compound at 1 μM", "method": "Kinome selectivity (as conducted by Reaction Biology Corporation, One Great Valley Parkway, Malvern, Pa., USA, 19355, http://www.reactionbiology.com) for the compound of Example 2 (6-(tert-butylsulfonyl)-N-(4,5-dimethyl-1H-pyrazol-3-yl)-7-ethoxyquinazolin-4-amine) was determined via in vitro profiling against a 337 member kinase panel."}, "[5]": {"conditions": "mean of minimum 2 experiments, read-out: pIC50 (converted)"}, "[6]": {"conditions": "updated average after continued testing, read-out: average pIC50 after continued testing (converted)"}},
  "note": "Where two headings read alike, the source gives them in different places.",
  "data": [
    {"compound": "CCCOc1cc2ncnc(Nc3n[nH]c(C)c3C)c2cc1S(=O)(=O)C(C)(C)C", "note": "[Example 3, 6-(tert-Butylsulfonyl)-N-(4,5-dimethyl-1H-pyrazol-3-yl)-7-propoxyquinazolin-4-amine]", "values": [
      {"measurement": "IC50", "setting": "[1]; [5]", "value": 12.6, "unit": "nM"},
      {"measurement": "IC50", "setting": "[1]; [6]", "value": 7.94, "unit": "nM"},
      {"measurement": "IC50", "setting": "[2]", "value": 100, "unit": "nM"}
    ]},
    {"compound": "Cc1[nH]nc(Nc2ncnc3cc(OCC4CCCO4)c(S(=O)(=O)C(C)(C)C)cc23)c1C", "note": "(stereo not shown) [Example 4, 6-(tert-Butylsulfonyl)-N-(4,5-dimethyl-1H-pyrazol-3-yl)-7-((tetrahydrofuran-2-yl)methoxy)quinazolin-4-amine]", "values": [
      {"measurement": "IC50", "setting": "[1]; [5]", "value": 10, "unit": "nM"},
      {"measurement": "IC50", "setting": "[2]", "value": 63.1, "unit": "nM"}
    ]},
    {"compound": "COCCOc1cc2ncnc(Nc3n[nH]c(C)c3C)c2cc1S(=O)(=O)C(C)(C)C", "note": "[Example 1, 6-(tert-Butylsulfonyl)-N-(4,5-dimethyl-1H-pyrazol-3-yl)-7-(2-methoxyethoxy)quinazolin-4-amine]", "values": [
      {"measurement": "IC50", "setting": "[1]; [5]", "value": 39.8, "unit": "nM"},
      {"measurement": "IC50", "setting": "[1]; [6]", "value": 31.6, "unit": "nM"},
      {"measurement": "IC50", "setting": "[2]", "value": 39.8, "unit": "nM"}
    ]},
    {"compound": "CCOc1cc2ncnc(Nc3n[nH]c(C)c3C)c2cc1S(=O)(=O)C(C)(C)C", "note": "[Example 2, 6-(tert-Butylsulfonyl)-N-(4,5-dimethyl-1H-pyrazol-3-yl)-7-ethoxyquinazolin-4-amine]", "values": [
      {"measurement": "IC50", "setting": "[1]; [5]", "value": 15.8, "unit": "nM"},
      {"measurement": "TdP Score", "setting": "[3]; 1 μM", "value": "−0.50"},
      {"measurement": "ICF (% change), contractility", "setting": "[3]; 1 μM", "value": "−4.4", "unit": "%"},
      {"measurement": "QRS", "setting": "[3]; 1 μM", "value": 39.6, "unit": "ms"},
      {"measurement": "QT", "setting": "[3]; 1 μM", "value": 346.4, "unit": "ms"},
      {"measurement": "Tp-e (msec), transmural dispersion", "setting": "[3]; 1 μM", "value": 71.9, "unit": "ms"},
      {"measurement": "Δ QT %", "setting": "[3]; 1 μM", "value": 3, "unit": "%"},
      {"measurement": "Proarrhythmia", "setting": "[3]; 1 μM", "value": "0/2"},
      {"measurement": "TdP Score", "setting": "[3]; 3 μM", "value": 0.00},
      {"measurement": "ICF (% change), contractility", "setting": "[3]; 3 μM", "value": "−5.3", "unit": "%"},
      {"measurement": "QRS", "setting": "[3]; 3 μM", "value": 39.2, "unit": "ms"},
      {"measurement": "QT", "setting": "[3]; 3 μM", "value": 351.9, "unit": "ms"},
      {"measurement": "Tp-e (msec), transmural dispersion", "setting": "[3]; 3 μM", "value": 73.2, "unit": "ms"},
      {"measurement": "Δ QT %", "setting": "[3]; 3 μM", "value": 4.8, "unit": "%"},
      {"measurement": "Proarrhythmia", "setting": "[3]; 3 μM", "value": "0/2"},
      {"measurement": "TdP Score", "setting": "[3]; 10 μM", "value": "−0.50"},
      {"measurement": "ICF (% change), contractility", "setting": "[3]; 10 μM", "value": "−15.1", "unit": "%"},
      {"measurement": "QRS", "setting": "[3]; 10 μM", "value": 39.4, "unit": "ms"},
      {"measurement": "QT", "setting": "[3]; 10 μM", "value": 348.8, "unit": "ms"},
      {"measurement": "Tp-e (msec), transmural dispersion", "setting": "[3]; 10 μM", "value": 68.4, "unit": "ms"},
      {"measurement": "Δ QT %", "setting": "[3]; 10 μM", "value": 4.0, "unit": "%"},
      {"measurement": "Proarrhythmia", "setting": "[3]; 10 μM", "value": "0/2"},
      {"measurement": "TdP Score", "setting": "[3]; 30 μM", "value": "−0.50"},
      {"measurement": "ICF (% change), contractility", "setting": "[3]; 30 μM", "value": "−20.7", "unit": "%"},
      {"measurement": "QRS", "setting": "[3]; 30 μM", "value": 39.7, "unit": "ms"},
      {"measurement": "QT", "setting": "[3]; 30 μM", "value": 348.8, "unit": "ms"},
      {"measurement": "Tp-e (msec), transmural dispersion", "setting": "[3]; 30 μM", "value": 69.1, "unit": "ms"},
      {"measurement": "Δ QT %", "setting": "[3]; 30 μM", "value": 4.0, "unit": "%"},
      {"measurement": "Proarrhythmia", "setting": "[3]; 30 μM", "value": "0/2"},
      {"measurement": "number of kinases with >50% inhibition, of 337 kinases tested", "setting": "[4]", "value": 4},
      {"measurement": "number of kinases with >70% inhibition, of 337 kinases tested", "setting": "[4]", "value": 1},
      {"measurement": "IC50", "setting": "[2]", "value": 63.1, "unit": "nM"}
    ]}
  ]
}
